# Measurements as given in the supplement of paper PMC10307832.
# Assays:
# Test in all cases: relative viability (nuclei count vs DMSO), 5 days (fraction); higher = more cells survive
# NCI-H2170 = system: NCI-H2170
# Summary of the method: (§1)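 Lung cancer cell lines in 1536-well plates were dosed by pin tool the day after seeding, either with one drug alone or with a fixed anchor-drug dose plus five library-drug doses (not always all listed) in √10 steps. After 5 days, cells were fixed and their nuclei stained in one step (final 0.05% Triton X-100, 1% formaldehyde, 1 ug/ml Hoechst), then counted on 4× images. Relative viability is the nuclei count in treated wells divided by that in vehicle wells. Values are medians of duplicate plates.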
# NCI-H460 = system: NCI-H460
# Summary of the method: as §1
# HCC-366 = system: HCC-366
# Summary of the method: as §1
# HCC-78 = system: HCC-78
# Summary of the method: as §1
# COR-L 105 = system: COR-L 105
# Summary of the method: as §1
# NCI-H1944 = system: NCI-H1944
# Summary of the method: as §1
# LCLC-97TM1 = system: LCLC-97TM1
# Summary of the method: as §1
# UMC-11 = system: UMC-11
# Summary of the method: as §1
# NCI-H1975 = system: NCI-H1975
# Summary of the method: as §1
# A-427 = system: A-427
# Summary of the method: as §1
# SK-LU-1 = system: SK-LU-1
# Summary of the method: as §1
# EPLC-272H = system: EPLC-272H
# Summary of the method: as §1
# NCI-H1792 = system: NCI-H1792
# Summary of the method: as §1
# NCI-H358 = system: NCI-H358
# Summary of the method: as §1
# SW 900 = system: SW 900
# Summary of the method: as §1
# NCI-H2085 = system: NCI-H2085
# Summary of the method: as §1
# HOP-62 = system: HOP-62
# Summary of the method: as §1
# LC-2-ad = system: LC-2-ad
# Summary of the method: as §1
# LU99A = system: LU99A
# Summary of the method: as §1
# LXF-289 = system: LXF-289
# Summary of the method: as §1
# NCI-H2342 = system: NCI-H2342
# Summary of the method: as §1
# NCI-H1755 = system: NCI-H1755
# Summary of the method: as §1
# NCI-H1915 = system: NCI-H1915
# Summary of the method: as §1
# NCI-H1793 = system: NCI-H1793
# Summary of the method: as §1
smiles,measurement,setting,value
Clc1ccc(Nc2nnc(Cc3ccncc3)c3ccccc23)cc1 [Vatalanib] + COc1cccc2cc(-c3nc([C@H]4CC[C@H](C(=O)O)CC4)n4ncnc(N)c34)[nH]c12 [OSI-027] (partner 0.5 µM),relative viability,NCI-H2170; first compound 0.04 µM,0.707
same,relative viability,NCI-H2170; first compound 0.1265 µM,0.743
same,relative viability,NCI-H2170; first compound 0.4 µM,0.782
same,relative viability,NCI-H2170; first compound 1.265 µM,0.63
same,relative viability,NCI-H2170; first compound 4 µM,0.769
same,relative viability,NCI-H460; first compound 0.04 µM,0.713
same,relative viability,NCI-H460; first compound 0.1265 µM,0.703
same,relative viability,NCI-H460; first compound 0.4 µM,0.655
same,relative viability,NCI-H460; first compound 1.265 µM,0.65
same,relative viability,NCI-H460; first compound 4 µM,0.624
same,relative viability,HCC-366; first compound 0.04 µM,1.18
same,relative viability,HCC-366; first compound 0.1265 µM,0.846
same,relative viability,HCC-366; first compound 0.4 µM,1.13
same,relative viability,HCC-366; first compound 1.265 µM,0.736
same,relative viability,HCC-366; first compound 4 µM,0.548
same,relative viability,HCC-78; first compound 0.04 µM,0.318
same,relative viability,HCC-78; first compound 0.1265 µM,0.37
same,relative viability,HCC-78; first compound 0.4 µM,0.381
same,relative viability,HCC-78; first compound 1.265 µM,0.306
same,relative viability,HCC-78; first compound 4 µM,0.351
same,relative viability,COR-L 105; first compound 0.04 µM,0.694
same,relative viability,COR-L 105; first compound 0.1265 µM,0.59
same,relative viability,COR-L 105; first compound 0.4 µM,0.721
same,relative viability,COR-L 105; first compound 1.265 µM,0.721
same,relative viability,COR-L 105; first compound 4 µM,0.561
same,relative viability,NCI-H1944; first compound 0.04 µM,0.42
same,relative viability,NCI-H1944; first compound 0.1265 µM,0.421
same,relative viability,NCI-H1944; first compound 0.4 µM,0.413
same,relative viability,NCI-H1944; first compound 1.265 µM,0.411
same,relative viability,NCI-H1944; first compound 4 µM,0.336
same,relative viability,LCLC-97TM1; first compound 0.04 µM,0.45
same,relative viability,LCLC-97TM1; first compound 0.1265 µM,0.398
same,relative viability,LCLC-97TM1; first compound 0.4 µM,0.552
same,relative viability,LCLC-97TM1; first compound 1.265 µM,0.531
same,relative viability,LCLC-97TM1; first compound 4 µM,0.42
same,relative viability,UMC-11; first compound 0.04 µM,0.461
same,relative viability,UMC-11; first compound 0.1265 µM,0.487
same,relative viability,UMC-11; first compound 0.4 µM,0.44
same,relative viability,UMC-11; first compound 1.265 µM,0.433
same,relative viability,UMC-11; first compound 4 µM,0.518
same,relative viability,NCI-H1975; first compound 0.04 µM,0.778
same,relative viability,NCI-H1975; first compound 0.1265 µM,0.739
same,relative viability,NCI-H1975; first compound 0.4 µM,0.688
same,relative viability,NCI-H1975; first compound 1.265 µM,0.568
same,relative viability,NCI-H1975; first compound 4 µM,0.673
same,relative viability,A-427; first compound 0.04 µM,0.504
same,relative viability,A-427; first compound 0.1265 µM,0.453
same,relative viability,A-427; first compound 0.4 µM,0.494
same,relative viability,A-427; first compound 1.265 µM,0.464
same,relative viability,A-427; first compound 4 µM,0.486
same,relative viability,SK-LU-1; first compound 0.04 µM,0.365
same,relative viability,SK-LU-1; first compound 0.1265 µM,0.346
same,relative viability,SK-LU-1; first compound 0.4 µM,0.395
same,relative viability,SK-LU-1; first compound 1.265 µM,0.357
same,relative viability,SK-LU-1; first compound 4 µM,0.348
same,relative viability,EPLC-272H; first compound 0.04 µM,0.268
same,relative viability,EPLC-272H; first compound 0.1265 µM,0.259
same,relative viability,EPLC-272H; first compound 0.4 µM,0.323
same,relative viability,EPLC-272H; first compound 1.265 µM,0.301
same,relative viability,EPLC-272H; first compound 4 µM,0.303
same,relative viability,NCI-H1792; first compound 0.04 µM,0.678
same,relative viability,NCI-H1792; first compound 0.1265 µM,0.68
same,relative viability,NCI-H1792; first compound 0.4 µM,0.704
same,relative viability,NCI-H1792; first compound 1.265 µM,0.707
same,relative viability,NCI-H1792; first compound 4 µM,0.631
same,relative viability,NCI-H358; first compound 0.04 µM,0.811
same,relative viability,NCI-H358; first compound 0.1265 µM,0.678
same,relative viability,NCI-H358; first compound 0.4 µM,0.747
same,relative viability,NCI-H358; first compound 1.265 µM,0.684
same,relative viability,NCI-H358; first compound 4 µM,0.698
same,relative viability,SW 900; first compound 0.1265 µM,0.531
same,relative viability,SW 900; first compound 0.4 µM,0.565
same,relative viability,SW 900; first compound 1.265 µM,0.618
same,relative viability,SW 900; first compound 4 µM,0.501
same,relative viability,NCI-H2085; first compound 0.04 µM,0.685
same,relative viability,NCI-H2085; first compound 0.1265 µM,0.819
same,relative viability,NCI-H2085; first compound 0.4 µM,0.883
same,relative viability,NCI-H2085; first compound 1.265 µM,0.697
same,relative viability,NCI-H2085; first compound 4 µM,0.544
same,relative viability,HOP-62; first compound 0.04 µM,0.906
same,relative viability,HOP-62; first compound 0.1265 µM,0.804
same,relative viability,HOP-62; first compound 0.4 µM,0.833
same,relative viability,HOP-62; first compound 1.265 µM,0.741
same,relative viability,HOP-62; first compound 4 µM,0.875
same,relative viability,LC-2-ad; first compound 0.04 µM,0.935
same,relative viability,LC-2-ad; first compound 0.1265 µM,0.865
same,relative viability,LC-2-ad; first compound 1.265 µM,0.785
same,relative viability,LC-2-ad; first compound 4 µM,0.826
same,relative viability,LU99A; first compound 0.04 µM,0.262
same,relative viability,LU99A; first compound 0.1265 µM,0.282
same,relative viability,LU99A; first compound 0.4 µM,0.358
same,relative viability,LU99A; first compound 1.265 µM,0.307
same,relative viability,LU99A; first compound 4 µM,0.277
same,relative viability,LXF-289; first compound 0.04 µM,0.824
same,relative viability,LXF-289; first compound 0.1265 µM,0.802
same,relative viability,LXF-289; first compound 0.4 µM,0.858
same,relative viability,LXF-289; first compound 1.265 µM,0.806
same,relative viability,LXF-289; first compound 4 µM,0.761
same,relative viability,NCI-H2342; first compound 0.04 µM,0.691
same,relative viability,NCI-H2342; first compound 0.1265 µM,0.556
same,relative viability,NCI-H2342; first compound 0.4 µM,0.616
same,relative viability,NCI-H2342; first compound 1.265 µM,0.592
same,relative viability,NCI-H2342; first compound 4 µM,0.601
same,relative viability,NCI-H1755; first compound 0.04 µM,0.82
same,relative viability,NCI-H1755; first compound 0.1265 µM,0.747
same,relative viability,NCI-H1755; first compound 0.4 µM,0.705
same,relative viability,NCI-H1755; first compound 1.265 µM,0.654
same,relative viability,NCI-H1755; first compound 4 µM,0.634
same,relative viability,NCI-H1915; first compound 0.04 µM,0.673
same,relative viability,NCI-H1915; first compound 0.1265 µM,0.636
same,relative viability,NCI-H1915; first compound 0.4 µM,0.632
same,relative viability,NCI-H1915; first compound 1.265 µM,0.649
same,relative viability,NCI-H1915; first compound 4 µM,0.61
same,relative viability,NCI-H1793; first compound 0.04 µM,0.268
same,relative viability,NCI-H1793; first compound 0.1265 µM,0.226
same,relative viability,NCI-H1793; first compound 0.4 µM,0.309
same,relative viability,NCI-H1793; first compound 1.265 µM,0.217
same,relative viability,NCI-H1793; first compound 4 µM,0.184
